One experiment deals with normal human fibroblasts. In words: Type I collagen synthesis of normal human fibroblasts (ELISA of culture supernatant; protein by BCA method). The class given is cell-based. The following applies: for Type I Collagen, Mean S.D.: 24-hour culture, n = 6, untreated control 7.03 ± 0.25. How it is done:
The action of 1,5-AG on the synthesis of type I collagen of dermal fibroblasts is evaluated. Specifically, normal human fibroblasts were spread on a 96-well microplate using Dulbecco's modified eagle medium (DMEM) containing 0.5% fetal bovine serum (FBS). The fibroblasts were cultured at 37° C. for 24 hours, and thereafter the medium was exchanged with a 0.5% FBS-containing DMEM containing a given concentration of samples. As a positive control (P.C.), the same treatment was carried out with magnesium ascorbyl phosphate. After the 24-hour culture in the sample-containing medium, the culture supernatant was collected and subjected to ELISA. Also, the amount of protein was measured in accordance with bicinchoninic acid (BCA) method with PIERCE (manufactured by Pierce Biotechnology Inc.).
The culture supernatant and the collagen solutions for calibration curve were each dispensed in each well of high-adsorbent ELISA plate, and allowed to coat at 4° C. over one day and night. Thereafter, the coated plate was blocked at 37° C. for 1 hour with a 1% bovine serum albumin (BSA) solution. The primary antibody reaction was carried out by diluting Anti-Human Collagen Type I antibody (manufactured by Bio-Rad Laboratories, Inc., Rabbit) with a 0.3% BSA solution, and the dilution was added to each well and allowed to react at 37° C. for 1 hour. The secondary antibody reaction was carried out by diluting Histofine MAX-PO® (manufactured by NICHIREI, Rabbit) with a phosphate buffer, and the dilution was added to each well, and allowed to react at 37° C. for 1 hour. Next, 0.3 mg/mL of phosphate-citrate buffer (0.1 M, pH 4.0) containing 2,2′-azinobis(3-ethylbenzothiazoline-6-sulfonic acid)diammonium salt (ABTS) and a 0.03% hydrogen peroxide was added to each well and allowed to react for 20 minutes, and the absorbance of the reaction mixture was measured at 405 nm with a microplate reader.
The amount of the collagen in the culture supernatant was calculated from the calibration curve prepared from commercially available collagen. By dividing the amount of collagen in the medium by the amount of proteins in all the cells, the amount of collagen synthesized per unit protein amount was calculated. The amount of collagen synthesized at each concentration was subjected to a significance test using a Student-t test, and a difference with an untreated control was evaluated.

For another experiment, the system named is skin surface of human. In words: Moisturizing effect: water content of skin surface in short-term use test of human volunteers (SKICON200). In kind it is in vivo. The following applies: for Water Content of Skin Surface, Mean (%) SD, relative value where the initial value was defined as 100%: 2.5 μL/cm^2, medial part of forearm, n = 4. As for the experimental part:
The moisturizing effects of the 1,5-AG are evaluated by a short-term use test of human volunteers. Specifically, with 5 males of ages of 26 to 34 as test individuals, an aqueous solution of a sample listed in Table 2 in a given concentration was applied in an amount of 2.5 μL/cm^2 at a medial part of forearm, and the water content of the skin surface was measured in accordance with the following method.
<Measurement of Water Content of Skin Surface>
Each test individual washed his medial part of forearm with a given detergent, and was conditioned for 15 minutes in a thermohygrostat (room temperature: 22° C., humidity: 45%). Thereafter, an initial value of the water content of the skin surface was measured with SKICON200 (manufactured by I.B.S. Co., Ltd., corneometer). Next, each of the test samples and purified water were coated according to a coating method. Further, uncoated sites were set. Water contents were measured immediately after the sample coating, after 15 minutes, after 30 minutes, and after 45 minutes. The water content of the uncoated sites was measured matching the measurement time at the sample-coated sites. The change in the water contents of each site to be tested was expressed in a relative value where an initial value was defined as 100%. The difference in the water content of skin surface in each test individual before and after the use of test samples was subjected to a significance test according to a Student-t test. The data for test individuals of which water contents of skin surface of the uncoated sites increased with passage of time were discarded as abnormal values, and the results calculated using the measurement values of four individuals are shown in Table 2 and FIG. 2.

`OC[C@H]1OC[C@H](O)[C@@H](O)[C@@H]1O` [1,5-AG, 1,5-anhydro-D-glucitol]: the figures for the “Type I Collagen, Mean S.D.” value with normal human fibroblasts (313 μg/mL sample), with normal human fibroblasts (625 μg/mL sample) and in the experiment with normal human fibroblasts (1250 μg/mL sample) were 7.81 ± 0.60 ng/μg protein, 8.28 ± 0.50 ng/μg protein and 8.31 ± 0.49 ng/μg protein, respectively. Besides, the “amount of type I collagen synthesized in the normal human fibroblasts” value in the experiment with normal human fibroblasts (versus untreated control, Student-t test) is “significantly increased”. For the same molecule, the “Water Content of Skin Surface, Mean (%) SD, relative value where the initial value was defined as 100%” value is recorded as 154.2 ± 12.3% with skin surface of human (2% aqueous solution, After 15 min); 180.3 ± 36.2% with skin surface of human (2% aqueous solution, After 30 min); 176.7 ± 15.8% with skin surface of human (2% aqueous solution, After 45 min); 2,535.4 ± 749.6% in the experiment with skin surface of human (2% aqueous solution, Immediately after Coating). Further, the “action on the water content of skin surface (moisturizing property)” value in the experiment with skin surface of human (test sample of 2% 1,5-AG, human volunteers) is “action of increasing the water content of skin surface”.
Turning to Sodium Hyaluronate [reference compound], the “Water Content of Skin Surface, Mean (%) SD, relative value where the initial value was defined as 100%” value in the experiment on skin surface of human (1% aqueous solution, After 15 min) is 122.6 ± 15.7%; in the experiment with skin surface of human (1% aqueous solution, After 30 min) it was 116.9 ± 23.7%; in the experiment on skin surface of human (1% aqueous solution, After 45 min) it was 130.1 ± 10.3%; in the experiment on skin surface of human (1% aqueous solution, Immediately after Coating) it was 3,101.8 ± 1,716.3%.
